Measured values: patent US20260138976A1 (Hoffmann-La Roche Inc., priority 2022, published 2026)

Legend:
primary human T-cells = experiment: Proliferation assay (5 days, CellTiter-Glo, CD3-stimulated T-cells); format: cell-based; details: for Emax proliferation (% activation): CD3 condition, normalised to DMSO (neutral) and 20 μM reference compound A1 = 100%; for EC50: Homo sapiens, T-cell, 120 h, CD3-stimulated primary human T-cells, 5 days, CellTiter-Glo, fitted sigmoidal curve, read-out: Tcell Proliferation CD3 EC50
Summary of the method: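 Expanded primary human T-cells, 100 k cells/well, were stimulated with plate-coated CD3 antibody (donor-titrated) and given compound in a 5 or 6 pt dose response from 20 μM or 10 μM final top, 0.2% DMSO final. ATP was read by CellTiter-Glo after 5 days. EC50 and Emax were reported as % of 20 μM reference compound A1.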

DGK ζ kinase = molecular target: T1, DGK ζ kinase (Homo sapiens, UniProt Q13574); experiment: DGKzeta kinase ADP Glo assay run by Reaction Biology Corp.; format: biochemical; details: 2 nM kinase, 50 µM ATP, 500 μM DLG, 10-dose duplicate
T1 construct: purchased Reaction Biology Corp. (contract assay service)
T1 sequence (Q13574 whole entry): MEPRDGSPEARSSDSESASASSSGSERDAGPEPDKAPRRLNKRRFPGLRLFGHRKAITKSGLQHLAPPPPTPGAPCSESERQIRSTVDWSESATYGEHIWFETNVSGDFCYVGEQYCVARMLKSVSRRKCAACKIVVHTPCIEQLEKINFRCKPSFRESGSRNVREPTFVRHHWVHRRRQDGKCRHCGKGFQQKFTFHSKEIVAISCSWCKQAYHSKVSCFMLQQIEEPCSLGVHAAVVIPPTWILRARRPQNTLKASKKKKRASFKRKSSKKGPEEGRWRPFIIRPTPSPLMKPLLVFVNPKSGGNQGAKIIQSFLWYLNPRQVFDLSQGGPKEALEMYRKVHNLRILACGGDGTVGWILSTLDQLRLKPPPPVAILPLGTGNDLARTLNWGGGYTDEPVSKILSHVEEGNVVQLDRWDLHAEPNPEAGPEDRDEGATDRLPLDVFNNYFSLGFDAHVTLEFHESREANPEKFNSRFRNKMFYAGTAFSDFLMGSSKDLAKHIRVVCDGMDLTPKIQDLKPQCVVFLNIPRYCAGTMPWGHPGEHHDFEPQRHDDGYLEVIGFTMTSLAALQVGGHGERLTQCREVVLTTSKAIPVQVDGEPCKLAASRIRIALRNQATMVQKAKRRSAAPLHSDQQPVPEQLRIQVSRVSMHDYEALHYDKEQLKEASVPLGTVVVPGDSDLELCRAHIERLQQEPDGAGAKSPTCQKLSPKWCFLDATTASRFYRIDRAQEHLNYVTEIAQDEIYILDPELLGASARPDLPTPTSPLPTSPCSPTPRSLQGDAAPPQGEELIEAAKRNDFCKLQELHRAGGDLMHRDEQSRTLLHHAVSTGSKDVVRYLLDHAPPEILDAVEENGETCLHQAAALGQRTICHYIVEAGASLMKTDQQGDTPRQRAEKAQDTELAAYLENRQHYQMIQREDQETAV

| SMILES | Emax proliferation (% activation) (primary human T-cells) | EC50 (primary human T-cells) | IC50 (DGK ζ kinase) |
| --- | --- | --- | --- |
| Cc1noc(-c2ccc(CN3C(=O)[C@@H](N)CS(=O)(=O)c4ccc(-c5nnc(C(C)(C)C)o5)cc43)cc2)n1 [Example 20, (3R)-3-amino-7-(5-tert-butyl-1,3,4-oxadiazol-2-yl)-5-[[4-(3-methyl-1,2,4-oxadiazol-5-yl)phenyl]methyl]-1,1-dioxo-2,3-dihydro-1λ^6,5-benzothiazepin-4-one] | 82 % activation | 2380 nM | 439 nM |
| CC(C)(C#N)c1nnc(-c2ccc3c(c2)N(Cc2ccc(-c4ccc(C(F)(F)F)cn4)cc2)C(=O)[C@@H](N)CS3(=O)=O)o1 [Example 47] | 159 % activation | 459 nM | 71.3 nM |
| C[C@@](N)(c1nnc(-c2ccc3c(c2)N(Cc2ccc(-c4noc(C(F)(F)F)n4)cc2)C(=O)[C@@H](N)CS3(=O)=O)o1)C(F)(F)F [Example 52, (3R)-3-amino-7-[5-[(1R)-1-amino-2,2,2-trifluoro-1-methyl-ethyl]-1,3,4-oxadiazol-2-yl]-1,1-dioxo-5-[[4-[5-(trifluoromethyl)-1,2,4-oxadiazol-3-yl]phenyl]methyl]-2,3-dihydro-1λ^6,5-benzothiazepin-4-one] | 126 % activation | 196 nM | 101 nM |
| C[C@](N)(c1nnc(-c2ccc3c(c2)N(Cc2ccc(-c4noc(C(F)(F)F)n4)cc2)C(=O)[C@@H](N)CS3(=O)=O)o1)C(F)(F)F [Example 53, (3R)-3-amino-7-[5-[(1S)-1-amino-2,2,2-trifluoro-1-methyl-ethyl]-1,3,4-oxadiazol-2-yl]-1,1-dioxo-5-[[4-[5-(trifluoromethyl)-1,2,4-oxadiazol-3-yl]phenyl]methyl]-2,3-dihydro-1λ^6,5-benzothiazepin-4-one] | 120 % activation | 2220 nM | 92.8 nM |
| N[C@H]1CS(=O)(=O)c2ccc(-c3nnc(N4CCOC(F)(F)C4)o3)cc2N(Cc2ccc(-c3noc(C(F)(F)F)n3)cc2)C1=O [Example 78, (3R)-3-amino-7-[5-(2,2-difluoromorpholin-4-yl)-1,3,4-oxadiazol-2-yl]-1,1-dioxo-5-[[4-[5-(trifluoromethyl)-1,2,4-oxadiazol-3-yl]phenyl]methyl]-2,3-dihydro-1λ^6,5-benzothiazepin-4-one] | 150 % activation | 1090 nM | 25.4 nM |
| COc1ccc(-c2ccc(CN3C(=O)[C@@H](N)CS(=O)(=O)c4ccc(-c5nnc(N(C)CC(F)(F)F)o5)cc43)cc2)cc1 [Example 81, (3R)-3-amino-5-[[4-(4-methoxyphenyl)phenyl]methyl]-7-[5-[methyl(2,2,2-trifluoroethyl)amino]-1,3,4-oxadiazol-2-yl]-1,1-dioxo-2,3-dihydro-1λ^6,5-benzothiazepin-4-one] | 138 % activation | 728 nM | 53.5 nM |
| CC(C)(C#N)c1nnc(-c2ccc3c(c2)N(Cc2ccc(-c4ccc(OC(F)(F)F)cn4)cc2)C(=O)[C@@H](N)CS3(=O)=O)o1 [Example 124] | 153 % activation | 114 nM | 56.7 nM |
| CCC(O)(c1nnc(-c2ccc3c(c2)N(Cc2ccc(-c4noc(C5CC5)n4)cc2)C(=O)[C@@H](N)CS3(=O)=O)o1)C(F)(F)F (some centres unmarked) [Example 169] | 106 % activation | 833 nM |  |
| CCN1CC(c2nnc(-c3ccc4c(c3)N(Cc3ccc(-c5noc(C(C)(C)C)n5)cc3)C(=O)[C@@H](N)CS4(=O)=O)o2)CC(F)(F)C1 (stereo partly drawn) [Example 181, (3R)-3-amino-5-[[4-(5-tert-butyl-1,2,4-oxadiazol-3-yl)phenyl]methyl]-7-[5-(1-ethyl-5,5-difluoro-3-piperidyl)-1,3,4-oxadiazol-2-yl]-1,1-dioxo-2,3-dihydro-1λ^6,5-benzothiazepin-4-one] | 105 % activation | 718 nM |  |
| COCCN1CC(c2nnc(-c3ccc4c(c3)N(Cc3ccc(-c5noc(C(F)(F)F)n5)cc3)C(=O)[C@@H](N)CS4(=O)=O)o2)CC(F)(F)C1 (stereo partly drawn) [Example 182, (3R)-3-amino-7-[5-[5,5-difluoro-1-(2-methoxyethyl)-3-piperidyl]-1,3,4-oxadiazol-2-yl]-1,1-dioxo-5-[[4-[5-(trifluoromethyl)-1,2,4-oxadiazol-3-yl]phenyl]methyl]-2,3-dihydro-1λ^6,5-benzothiazepin-4-one] | 175 % activation | 1270 nM |  |
| COCCN1CC(c2nnc(-c3ccc4c(c3)N(Cc3ccc(-c5ccc(OC)cc5)cc3)C(=O)[C@@H](N)CS4(=O)=O)o2)CC(F)(F)C1 (stereo partly drawn) [Example 183, (3R)-3-amino-7-[5-[5,5-difluoro-1-(2-methoxyethyl)-3-piperidyl]-1,3,4-oxadiazol-2-yl]-5-[[4-(4-methoxyphenyl)phenyl]methyl]-1,1-dioxo-2,3-dihydro-1λ^6,5-benzothiazepin-4-one] | 156 % activation | 1680 nM |  |
